# Values quoted from earlier work as cited in patent US12629325B2, “Increased solubilization of Bemotrizinol” (DSM IP ASSETS B.V., priority 2020, dated 2026).
# Where two headings read alike, the source gives them in different places.
# Conditions: for Solubility in esters: particularly C12-15 alkyl benzoate
# [1] = listed as UV-filter of the formula (I)
smiles,measurement,setting,value
"CCCCC(CC)COc1ccc(-c2nc(-c3ccc(OC)cc3)nc(-c3ccc(OCC(CC)CCCC)cc3O)n2)c(O)c1 (stereo not drawn) [Bemotrizinol, 2,4-Bis-{[4-(2-ethyl-hexyloxy)-2-hydroxy]-phenyl}-6-(4-methoxyphenyl)-1,3,5-triazine]",Solubility in alkanes,,very low
same,Solubility in alkanes,[1],insoluble
same,Solubility in esters,,moderate solubility
same,Solubility in esters,[1],very soluble
same,Solubility in water,,very low
same,Solubility in water,[1],insoluble
